Tests used:
[1] = target: PI3Kalpha (Homo sapiens (Human), UniProt P42336); experiment: Cell-free kinase assay (ALPHA technology), PI3Kalpha; type: biochemical; settings: 100 μM ATP
Procedure: (§1) The inhibitory effect of the compounds according to the invention was tested on various serine/threonine, tyrosine and lipid kinases in enzymatic assays. Recombinant human kinases such as, for example, Erk2, PI3Kalpha, -beta, -gamma, -delta, p38alpha, p38gamma, Jnk1, Jnk2 and others were used in this case, partly as full-length kinases, partly as shortened fragments, but at least consisting of the functional kinase domains. The commercial kinase proteins (Proqinase, Upstate) were used as recombinant fusion proteins with GST (glutathion-S-transferase) or His-Tag. Depending on the type of substrate, the various kinase reactions were quantified by means of suitable ALPHA™ beads (Perkin-Elmer).
(§2) The substance testing is described in detail hereinafter for the Erk assay.
(§3) a) MAPK-ALPHAs (e.g. Erk2): the test substance, 0.625 ng Erk2 (#14-173, Upstate), 10 μM ATP and 15 nM biotinylated MBP (myelin basic protein) substrate were incubated on a 384-well Optiplate (Perkin-Elmer) in a volume of 15 μl for 1 h in 25 mM Tris, 10 mM MgCl2, 0.1% Tween-20, 100 μM NaVO4, 2 mM DTT at pH 7.5. The kinase reaction was then stopped by adding 10 μl of the ALPHA bead mixes (10 μg/ml, #6760617/Perkin-Elmer) pre-incubated with anti-phospho MBP antibody (320 pM, #05-429/Upstate) in 25 mM Tris, 200 mM NaCl, 110 nM EDTA and 0.3% BSA and left to stand overnight. b) PI3K-ALPHAs (e.g. PI3Kalpha): the test substance, 1 ng PI3Kalpha (#14-602, Upstate), 100 μM ATP and 20 μM PIP2 substrate (#P4508, Echelon) were incubated on a 384-well Optiplate (Perkin-Elmer) for 1 h in 50 mM Hepes, 50 mM NaCl, 5 mM MgCl2, 0.05% Chaps, 5 mM DTT at pH 7.4. The kinase reaction was then stopped by adding ALPHA bead mixes (10 μg/ml, #6760603/Perkin-Elmer) pre-incubated with 1 nM GST:Grp1 fusion protein (Upstate) and 15 nM biotinylated PIP3 (#C-39B6/Echelon) in 50 mM Hepes, 50 mM NaCl, 50 mM EDTA and 0.1% BSA and left to stand overnight.
(§4) The fluorescence was detected the following morning in a Fusion™^aα-system (Perkin-Elmer).
(§5) The %-inhibition values per substance concentration were calculated by means of the following formula from the raw data determined in the Fusion™ ? :
(§6) Eight determinations were made for each control and two for the substance samples. The 0% control either contains no ATP or no substrate, the 100% control (fully active kinase) contains no test substance. The IC50 values were determined using GraphPadPrism.

[2] = test system: Jnk1 + Jnk2; experiment: Cell-free kinase assay (ALPHA technology), Jnk1 + Jnk2; type: biochemical, human; settings: 10 μM ATP
Procedure: as §1, §2, §3, §4, §5, §6

[3] = target: Erk2 (Homo sapiens, UniProt P28482); experiment: Cell-free kinase assay (ALPHA technology), Erk2; type: biochemical; settings: 10 μM ATP
Procedure: The inhibitory effect of the compounds according to the invention was tested on various serine/threonine, tyrosine and lipid kinases in enzymatic assays. […] The commercial kinase proteins (Proqinase, Upstate) were used as recombinant fusion proteins with GST (glutathion-S-transferase) or His-Tag. Depending on the type of substrate, the various kinase reactions were quantified by means of suitable ALPHA™ beads (Perkin-Elmer). The substance testing is described in detail hereinafter for the Erk assay. […] a) MAPK-ALPHAs (e.g. […] The kinase reaction was then stopped by adding ALPHA bead mixes (10 μg/ml, #6760603/Perkin-Elmer) pre-incubated with 1 nM GST:Grp1 fusion protein (Upstate) and 15 nM biotinylated PIP3 (#C-39B6/Echelon) in 50 mM Hepes, 50 mM NaCl, 50 mM EDTA and 0.1% BSA and left to stand overnight. The fluorescence was detected the following morning in a Fusion™^aα-system (Perkin-Elmer). […] Eight determinations were made for each control and two for the substance samples. […] The IC50 values were determined using GraphPadPrism.

[4] = target: p38alpha (Homo sapiens (Human), UniProt Q16539); experiment: Cell-free kinase assay (ALPHA technology), p38alpha; type: biochemical; settings: 10 μM ATP
Procedure: as §1, §2, §3, §4, §5, §6

Erk2, sequence (P28482 2-360 limits assumed): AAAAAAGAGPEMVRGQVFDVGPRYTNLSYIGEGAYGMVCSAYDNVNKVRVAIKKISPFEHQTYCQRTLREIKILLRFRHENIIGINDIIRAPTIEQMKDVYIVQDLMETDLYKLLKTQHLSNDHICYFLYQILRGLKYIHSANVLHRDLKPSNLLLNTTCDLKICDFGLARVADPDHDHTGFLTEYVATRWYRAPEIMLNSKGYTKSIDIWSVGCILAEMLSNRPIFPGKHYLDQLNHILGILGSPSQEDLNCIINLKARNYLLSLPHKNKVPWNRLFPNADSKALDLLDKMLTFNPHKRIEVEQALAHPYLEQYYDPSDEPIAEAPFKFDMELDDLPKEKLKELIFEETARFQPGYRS
PI3Kalpha, sequence (P42336 whole entry, the tested form may be a part): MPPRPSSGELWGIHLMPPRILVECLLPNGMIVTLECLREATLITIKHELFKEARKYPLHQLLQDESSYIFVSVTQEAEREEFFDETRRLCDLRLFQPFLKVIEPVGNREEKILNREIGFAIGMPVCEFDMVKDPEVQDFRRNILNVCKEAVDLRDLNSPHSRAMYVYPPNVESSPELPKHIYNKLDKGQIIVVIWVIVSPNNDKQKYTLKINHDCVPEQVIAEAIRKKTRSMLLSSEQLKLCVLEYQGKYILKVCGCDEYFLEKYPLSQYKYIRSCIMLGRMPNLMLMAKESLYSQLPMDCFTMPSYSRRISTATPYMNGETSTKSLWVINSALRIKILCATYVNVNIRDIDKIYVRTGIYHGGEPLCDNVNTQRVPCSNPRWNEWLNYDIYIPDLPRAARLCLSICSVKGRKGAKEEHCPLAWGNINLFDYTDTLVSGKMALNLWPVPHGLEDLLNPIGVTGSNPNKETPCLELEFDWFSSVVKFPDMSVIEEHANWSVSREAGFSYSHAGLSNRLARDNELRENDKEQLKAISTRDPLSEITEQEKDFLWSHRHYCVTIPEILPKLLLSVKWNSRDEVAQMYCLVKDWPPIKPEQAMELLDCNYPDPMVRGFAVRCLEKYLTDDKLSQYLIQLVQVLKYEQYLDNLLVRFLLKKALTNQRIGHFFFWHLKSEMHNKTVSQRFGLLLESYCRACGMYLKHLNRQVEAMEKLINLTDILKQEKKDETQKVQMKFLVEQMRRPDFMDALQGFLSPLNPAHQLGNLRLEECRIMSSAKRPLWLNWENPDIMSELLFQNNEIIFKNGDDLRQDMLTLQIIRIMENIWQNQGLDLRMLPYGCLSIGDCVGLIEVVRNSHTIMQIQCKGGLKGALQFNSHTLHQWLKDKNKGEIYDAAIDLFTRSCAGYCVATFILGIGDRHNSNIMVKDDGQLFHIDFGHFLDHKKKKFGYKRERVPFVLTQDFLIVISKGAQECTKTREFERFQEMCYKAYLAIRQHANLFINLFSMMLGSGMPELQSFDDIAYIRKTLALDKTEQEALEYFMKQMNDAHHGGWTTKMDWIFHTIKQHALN
PI3Kalpha, sequence (P27986 whole entry partner, the tested form may be a part): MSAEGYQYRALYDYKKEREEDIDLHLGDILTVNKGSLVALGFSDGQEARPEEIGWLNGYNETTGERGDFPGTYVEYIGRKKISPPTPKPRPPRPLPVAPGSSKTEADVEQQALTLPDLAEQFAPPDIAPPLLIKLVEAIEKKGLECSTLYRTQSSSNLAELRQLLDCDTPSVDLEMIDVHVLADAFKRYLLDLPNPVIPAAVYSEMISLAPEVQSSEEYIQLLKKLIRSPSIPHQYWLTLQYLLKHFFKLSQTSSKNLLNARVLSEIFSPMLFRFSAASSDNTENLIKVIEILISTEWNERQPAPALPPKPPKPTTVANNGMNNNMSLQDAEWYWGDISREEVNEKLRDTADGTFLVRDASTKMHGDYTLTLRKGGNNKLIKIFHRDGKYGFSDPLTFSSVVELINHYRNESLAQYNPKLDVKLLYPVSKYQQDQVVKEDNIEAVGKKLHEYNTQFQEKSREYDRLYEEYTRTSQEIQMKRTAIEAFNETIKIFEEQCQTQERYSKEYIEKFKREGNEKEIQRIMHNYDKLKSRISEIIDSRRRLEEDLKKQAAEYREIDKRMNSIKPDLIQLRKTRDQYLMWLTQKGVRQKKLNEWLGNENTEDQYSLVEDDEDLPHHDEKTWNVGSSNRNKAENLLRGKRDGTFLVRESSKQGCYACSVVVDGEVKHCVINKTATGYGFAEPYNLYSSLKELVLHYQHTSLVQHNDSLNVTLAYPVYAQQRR
p38alpha, sequence (Q16539 whole entry): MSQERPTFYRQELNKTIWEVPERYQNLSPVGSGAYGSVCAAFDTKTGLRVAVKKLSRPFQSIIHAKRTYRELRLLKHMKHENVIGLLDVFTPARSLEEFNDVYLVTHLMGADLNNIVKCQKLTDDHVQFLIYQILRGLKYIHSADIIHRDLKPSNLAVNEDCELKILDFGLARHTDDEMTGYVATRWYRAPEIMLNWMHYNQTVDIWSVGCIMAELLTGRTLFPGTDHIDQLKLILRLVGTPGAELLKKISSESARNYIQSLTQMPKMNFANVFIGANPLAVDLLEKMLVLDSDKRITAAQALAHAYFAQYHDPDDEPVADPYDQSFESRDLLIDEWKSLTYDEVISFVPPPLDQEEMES

SMILES	melting point	IC50 [1]	IC50 [2]	IC50 [3]	IC50 [4]
CCNC(=O)Nc1ccc2ncc(-c3ccc(OCCCN4CCOCC4)cc3)nc2n1 [Compound 148, 1-Ethyl-3-{3-[4-(3-morpholin-4-yl-propoxy)-phenyl]-pyrido[2,3-b]pyrazin-6-yl}-urea]		1.4 µM	13.7 µM	1.8 µM	> 100 µM
CCNC(=O)Nc1ccc2ncc(Nc3cnccn3)nc2n1 [Compound 181, 1-Ethyl-3-[3-(pyrazin-2-ylamino)-pyrido[2,3-b]pyrazin-6-yl]-urea]		0.739 µM	4.3 µM	1.7 µM	> 100 µM
CCNC(=O)Nc1ccc2ncc(Nc3ccc(OC)cc3)nc2n1 [Compound 158, 1-Ethyl-3-[3-(4-methoxy-phenylamino)-pyrido[2,3-b]pyrazin-6-yl]-urea]		0.186 µM	> 31.6 µM	> 100 µM	> 100 µM
CCNC(=O)Nc1ccc2ncc(Nc3cccc(OC(C)C)c3)nc2n1 [Compound 182, 1-Ethyl-3-[3-(3-isopropoxy-phenylamino)-pyrido[2,3-b]pyrazin-6-yl]-urea]		1.1 µM	21 µM	> 31.6 µM	> 100 µM
CCNC(=O)Nc1ccc2ncc(Nc3ccc(C)c(OC)c3)nc2n1 [Compound 163, 1-Ethyl-3-[3-(3-methoxy-4-methyl-phenylamino)-pyrido[2,3-b]pyrazin-6-yl]-urea]		0.096 µM	> 31.6 µM	26.9 µM	> 100 µM
CCNC(=O)Nc1ccc2ncc(-c3ccc(Cl)cc3OC)nc2n1 [Compound 171, 1-[3-(4-Chloro-2-methoxy-phenyl)-pyrido[2,3-b]pyrazin-6-yl]-3-ethyl-urea]		3 µM	1.4 µM	0.084 µM	> 100 µM
CCNC(=O)Nc1ccc2ncc(Nc3cc(Cl)c(O)c(Cl)c3)nc2n1 [Compound 185, 1-[3-(3,5-Dichloro-4-hydroxy-phenylamino)-pyrido[2,3-b]pyrazin-6-yl]-3-ethyl-urea]		0.154 µM	4.3 µM	> 31.6 µM	> 100 µM
CCNC(=O)Nc1ccc2ncc(-c3c(C)n[nH]c3C)nc2n1 [Compound 172, 1-[3-(3,5-Dimethyl-1H-pyrazol-4-yl)-pyrido[2,3-b]pyrazin-6-yl]-3-ethyl-urea]		4 µM	4 µM	0.41 µM	> 100 µM
CCNC(=O)Nc1ccc2ncc(Nc3ccc(C)cn3)nc2n1 [Compound 165, 1-Ethyl-3-[3-(5-methyl-pyridin-2-yl-amino)-pyrido[2,3-b]pyrazin-6-yl]-urea]		1.2 µM	27.1 µM	19.4 µM	> 100 µM

The remaining lines, values ahead:

melting point	IC50 [1]	IC50 [2]	IC50 [3]	IC50 [4]	SMILES
250 to 251 °C (dec.)					COc1ccc(-c2cnc3ccc(NC(=S)Nc4ccc([N+](=O)[O-])cc4)nc3n2)cc1 [Compound 9, 1-[3-(4-methoxy-phenyl)-pyrido[2,3-b]pyrazin-6-yl]-3-(4-nitro-phenyl)-thiourea]
	3.5 µM	> 31.6 µM	0.954 µM	> 100 µM	CCNC(=S)Nc1ccc2ncc(-c3ccc(O)cc3)nc2n1 [Compound 149, 1-Ethyl-3-[3-(4-hydroxy-phenyl)-pyrido[2,3-b]pyrazin-6-yl]-thiourea]
	6.2 µM	5.5 µM	0.006 µM	> 100 µM	CCNC(=O)Nc1ccc2ncc(-c3ccc(O)cc3)nc2n1 [Compound 43, 1-Ethyl-3-[3-(4-hydroxy-phenyl)-pyrido[2,3-b]pyrazin-6-yl]-urea]
	4.1 µM	14.2 µM	0.711 µM	> 100 µM	O=C(NCCCO)Nc1ccc2ncc(-c3ccccc3)nc2n1 [Compound 147, 1-(3-Hydroxy-propyl)-3-(3-phenyl-pyrido[2,3-b]pyrazin-6-yl)-urea]
	1.1 µM	27.3 µM	> 100 µM	> 100 µM	CCNC(=O)Nc1ccc2ncc(Nc3ccc(F)cc3)nc2n1 [Compound 167, 1-Ethyl-3-[3-(4-fluoro-phenylamino)-pyrido[2,3-b]pyrazin-6-yl]-urea]

— patent publication US8937068B2, “Pyridopyrazine derivatives and their use” (Zentaris GmbH, priority 2005, dated 2015)
